Data from patent US12187722B2, “Small molecule inhibitors of TEAD transcription factors” (The General Hospital Corporation, priority 2019, dated 2025).

These molecules were tested against TEAD2 (Homo sapiens (Human), UniProt Q15562) (assay: In vitro palmitoylation (TEAD2 autopalmitoylation, streptavidin blot)). Settings: compound at 10 μM.
Assay type: biochemical
In short: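 Recombinant GST- or His6-TEAD2 (500 ng) preincubated 15 min with compound, then 30 min with 1 μM alkyne palmitoyl-CoA; click-labelled with biotin-azide (1 h, RT). Streptavidin-HRP blot band intensity quantified after SDS-PAGE; inhibition of autopalmitoylation relative to DMSO control.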

Sequence of TEAD2 (Q15562 whole entry): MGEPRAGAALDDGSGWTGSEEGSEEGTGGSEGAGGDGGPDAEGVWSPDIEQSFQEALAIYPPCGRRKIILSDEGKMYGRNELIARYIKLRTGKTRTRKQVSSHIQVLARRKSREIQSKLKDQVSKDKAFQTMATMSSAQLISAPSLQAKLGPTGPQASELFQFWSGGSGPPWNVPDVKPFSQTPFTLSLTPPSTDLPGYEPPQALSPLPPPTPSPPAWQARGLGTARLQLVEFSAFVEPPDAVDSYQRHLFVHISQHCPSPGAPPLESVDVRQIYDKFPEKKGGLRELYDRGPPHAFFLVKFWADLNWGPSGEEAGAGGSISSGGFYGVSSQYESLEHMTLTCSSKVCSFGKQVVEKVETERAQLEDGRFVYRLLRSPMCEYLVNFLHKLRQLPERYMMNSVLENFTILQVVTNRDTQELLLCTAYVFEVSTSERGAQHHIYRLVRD

inhibition at 10 µM	SMILES
80%	O=C(OCC(O)CO)c1ccccc1Nc1ccc(Nc2ccc(C34CC5CC(CC(C5)C3)C4)cc2)cc1 (stereo not drawn)
5%	C=CC(=O)c1ccccc1Nc1ccc(Nc2ccc(C34CC5CC(CC(C5)C3)C4)cc2)cc1

Same assay, conditions: compound at 10 μM; Table 2

inhibition at 10 µM	% of inhibition of TEAD2 palmitoylation at 10 μM	SMILES
86%		O=C(O)Cn1cnc2cc(Nc3ccc(C45CC6CC(CC(C6)C4)C5)cc3Cl)ccc21 [Compound 108]
62%		O=C(O)c1cccc(NC(=O)c2cccc(Nc3ccc(C45CC6CC(CC(C6)C4)C5)cc3)c2)c1 [Compound 240]
56%		O=C(O)c1ccccc1Nc1ccc(Nc2ccc(C34CC5CC(CC(C5)C3)C4)cc2)cc1 [Compound 24, 2-((4-((4-((3R,5R)-adamantan-1-yl)phenyl)amino)phenyl)amino)benzoic acid]
22%		O=C(O)C1CCCN(Cc2ccc(Nc3ccc(C45CC6CC(CC(C6)C4)C5)cc3Cl)cc2)C1 (stereo not drawn) [Compound 143]
0%		COC(=O)c1ccccc1Nc1ccc(C(=O)Nc2ccc(C34CC5CC(CC(C5)C3)C4)cc2Cl)cc1 [Compound 6]
14%		O=C(O)c1ccccc1Nc1ccc(Nc2ccc(C34CC5CC(CC(C5)C3)C4)cc2)nc1 [Compound 34]
100%		COCCOc1ccc(Nc2ccc(N(C)c3ccc(C45CC6CC(CC(C6)C4)C5)cc3)cc2)c(C(=O)O)c1 [Compound 269]
85%		CN(c1ccc(Nc2ccc(C34CC5CC(CC(C5)C3)C4)cc2)cc1)c1ccccc1C(=O)O [Compound 99]
100%		O=C(Nc1ccc(C23CC4CC(CC(C4)C2)C3)cc1Cl)c1cccc(Nc2ncccc2C(=O)O)c1 [Compound 241]
59%		O=C(O)C1CCCC1Nc1ccc(Nc2ccc(C34CC5CC(CC(C5)C3)C4)cc2Cl)cc1 (stereo not drawn) [Compound 39]
9%		O=C(O)c1cc(Nc2ccc(Nc3ccc(C45CC6CC(CC(C6)C4)C5)cc3Cl)cc2)ccn1 [Compound 117]
58%	43%	O=C(O)c1cccc(Nc2cc(C(F)(F)F)cc3[nH]c4ccc(C56CC7CC(CC(C7)C5)C6)cc4c23)n1 [Compound 154]
99%		CN(c1ccc(Oc2ccc(C34CC5CC(CC(C5)C3)C4)cc2)cc1)c1ccccc1C(=O)O [Compound 155]
0%		COc1ccccc1-c1ccc(Nc2ccc(Nc3ccccc3C(=O)O)cc2)c(Cl)c1 [Compound 56]
35%		COc1cccc2c1S(=O)(=O)N=C2Nc1ccc(C23CC4CC(CC(C4)C2)C3)cc1 [Compound 19]
0%		O=C(O)c1cccnc1N1CCN(Cc2ccc(C34CC5CC(CC(C5)C3)C4)cc2Cl)CC1 [Compound 106]
98%		O=C(O)c1ccccc1Nc1ccc(Oc2ccc(C34CC5CC(CC(C5)C3)C4)cc2Cl)cc1 [Compound 166]
0%		COC(=O)c1ccccc1Nc1ccc(C(=O)Nc2ccc(C34CC5CC(CC(C5)C3)C4)cc2Br)cc1 [Compound 5]
98%		O=C(O)c1cccc(Nc2ccc(Nc3ccc(C45CC6CC(CC(C6)C4)C5)cc3Cl)cc2)c1 [Compound 84]
96%		O=C(O)c1cccnc1Nc1cccc(C23CC4CC(CC(C4)C2)C3)c1 [Compound 96]
60%		O=C(O)c1ccccc1Nc1ccc(Nc2ccc(-c3ccccc3Cl)cc2Cl)cc1 [Compound 58]
41%		CCCCN(CCCC)C(=O)c1ccc(Nc2ccccc2C(=O)O)cc1 [Compound 159]
53%		O=C(O)C1CCCN1Cc1ccc(Nc2ccc(C34CC5CC(CC(C5)C3)C4)cc2Cl)cc1 (stereo not drawn) [Compound 103]
67%		CC(C)c1ccccc1-c1ccc(NC(=O)c2ccc(Nc3ccccc3C(=O)O)cc2)cc1 [Compound 211]
99%		O=C(O)c1ccccc1Nc1cnc(Nc2ccc(C34CC5CC(CC(C5)C3)C4)cc2Cl)cn1 [compound 283]

inhibition at 10 µM	% of inhibition of TEAD2 palmitoylation at 10 μM	SMILES
0%		CN(c1cccc(C(=O)Nc2ccc(C34CC5CC(CC(C5)C3)C4)cc2)c1)c1ccccc1C(=O)O [Compound 230]
0%		CCCCN(c1ccccc1)c1ccc(NC(=O)c2ccc(Nc3ccccc3C(=O)O)cc2)cc1 [Compound 195]
7%		O=C(O)[C@@H]1CCCN1C(=O)Nc1ccc(C23CC4CC(CC(C4)C2)C3)cc1 [Compound 38]
100%		O=C(O)c1cncc(Nc2cc(Nc3ccc(C45CC6CC(CC(C6)C4)C5)cc3Cl)cc(C(F)(F)F)c2)c1 [Compound 153]
100%		CC(C)c1ccccc1Cc1cccc(Nc2ncccc2C(=O)O)c1 [Compound 113]
62%		O=C(O)Cn1ncc2cc(Nc3ccc(C45CC6CC(CC(C6)C4)C5)cc3Cl)ccc21 [Compound 101]
93%		CN(c1cnn(Cc2ccc(C34CC5CC(CC(C5)C3)C4)cc2Cl)c1)c1ncccc1C(=O)O [Compound 133]
79%		CC1(C)OC(C(=O)O)C(C(=O)Nc2cc(Nc3ccc(C45CC6CC(CC(C6)C4)C5)cc3Cl)cc(C(F)(F)F)c2)O1 (stereo not drawn) [Compound 120]
90%		O=C(Cc1ccc(Nc2ccc(C34CC5CC(CC(C5)C3)C4)cc2)cc1)Nc1ccccc1C(=O)O [Compound 213]
85%		O=C(O)Cn1cc2cc(Nc3ccc(C45CC6CC(CC(C6)C4)C5)cc3Cl)ccc2n1 [Compound 110]
20%		O=C(O)c1cccc(Nc2ccc(S(=O)(=O)Nc3ccc(C45CC6CC(CC(C6)C4)C5)cc3)cc2)n1 [Compound 194]
54%		O=C(O)c1nccnc1Nc1ccc(Nc2ccc(C34CC5CC(CC(C5)C3)C4)cc2Cl)cc1 [Compound 86]
63%		CNC(=O)c1cc(OC)ccc1Nc1ccc(N(C)c2ccc(C(F)(F)F)cc2)cc1 [compound 430]
84%		O=C(Nc1ccc(C23CC4CC(CC(C4)C2)C3)cc1)c1ccc(C(=O)Nc2ccccc2C(=O)O)cc1 [Compound 225]
17%		CC(C)N(c1ccc(N(C)c2ccc(C34CC5CC(CC(C5)C3)C4)cc2)cc1)c1ccccc1C(=O)O [Compound 226]
36%		O=C(NCc1ccc(C23CC4CC(CC(C4)C2)C3)cc1)c1ccc(Nc2ccccc2C(=O)O)cc1 [Compound 267]
100%		O=C(O)c1cccnc1Nc1ccc(C23CC4CC(CC(C4)C2)C3)cc1Cl [Compound 60]
91%		O=C(O)c1cncc(Nc2ccc(Nc3ccc(C45CC6CC(CC(C6)C4)C5)cc3Cl)cc2)c1 [Compound 116]
24%		CN(c1ccc(Nc2ccc(C34CC5CC(CC(C5)C3)C4)cc2)cc1)c1ncccc1C(=O)O [Compound 138]
84%		CN(c1ccc(C23CC4CC(CC(C4)C2)C3)cc1)c1ccc(N(C)c2ccccc2C(=O)O)cn1 [Compound 160]
64%		O=C(Nc1ccc(C23CC4CC(CC(C4)C2)C3)cc1)c1cccc(Nc2ncccc2C(=O)O)c1 [Compound 234]
76%		O=C(O)c1ccccc1Nc1ccc(N(c2ccc(C34CC5CC(CC(C5)C3)C4)cc2)C(F)(F)F)cc1 [Compound 186]
77%		O=C(Nc1ccc(C23CC4CC(CC(C4)C2)C3)cc1)c1ccc(Oc2cccc(C(=O)O)n2)cc1 [Compound 212]
43%		O=C(NC12CC3CC(CC(C3)C1)C2)c1ccc(Nc2ccccc2C(=O)O)cc1 [Compound 167]
95%		O=C(O)c1cccc(Nc2ccc(Oc3ccc(C45CC6CC(CC(C6)C4)C5)cc3Cl)cc2)n1 [Compound 203]

Same assay, conditions: compound at 10 μM; Table 3

inhibition at 10 µM	SMILES
63%	COc1ccc(Nc2ccc(N(C)c3nc(C4CCCCC4)cs3)cc2)c(C(=O)O)c1 [CP-597]
59%	COc1ccc(Nc2ccc(F)cc2Oc2ccc(C34CC5CC(C)(CC(C)(C5)C3)C4)cc2Cl)c(C(=O)O)c1 [CP-569]
0%	Cc1cc(N(C)c2ccc(C3CCCCC3)cc2)ccc1Nc1ccc(NC2CCOCC2)cc1C(=O)O [CP-620]
90%	CNS(=O)(=O)c1ccc(Nc2ccc(N(C)c3ccc(C4CCCCC4)cc3)cc2C)nc1C(=O)O [CP-656]
40%	COc1ccc(Nc2cccc(C(=O)Nc3ccc(C(F)(F)F)cc3)c2)c(C(=O)O)c1 [CP-586]
34%	COc1ccc(Nc2ccc(N(C)c3ccc(C4=CCC(F)(F)CC4)cc3)cc2)c(C(=O)O)c1 [CP-557]
79%	O=C(O)c1ccccc1Nc1cnc(Oc2ccc(C3CCCCC3)cc2Cl)cn1 [CP-559]
98%	O=C(O)c1ccccc1Nc1ccc(Oc2ccc(C(F)(F)F)cc2Cl)cc1 [CP-543]
86%	COc1ccc(Nc2ccc(N(C)c3cc(Cl)cc(Cl)c3)cc2)c(C(=O)O)c1 [CP-612]
55%	O=C(Nc1ccc(C2CCCCC2)cc1Cl)c1cccc(Nc2ccc(OC3CC3)cc2C(=O)O)c1 [CP-672]
36%	COc1ccc(Oc2ccc(N(C)c3ccc(C(F)(F)F)cc3)cc2)c(C(=O)O)c1 [CP-587]
99%	Cc1cc(Nc2ccc(C3CCCCC3)cc2)ccc1C(=O)Nc1cccc(C(=O)O)c1 [CP-649]
98%	COc1ccc(Nc2ccc(Oc3ccc(C(F)(F)F)cc3Cl)cc2)c(C(=O)O)c1 [CP-544]
81%	Cc1cc(N(C)c2ccc(C3CCCCC3)cc2)ccc1Nc1ccc(C(=O)N2CC(C(N)=O)C2)cc1C(=O)O [CP-679]
6%	COc1ccc(Nc2ccc(N(C)c3ccc(CN4CCCCC4)cc3)cc2)c(C(=O)O)c1 [CP-567]
50%	O=C(Nc1ccc(C2CCCCC2)cc1)c1cccc(Nc2ccccc2C(=O)O)c1 [CP-664]
61%	Cc1cc(N(C)c2ccc(C3CCCCC3)cc2)ccc1Nc1ccc(C(F)(F)F)cc1C(=O)O [CP-579]
32%	Cc1cc(N(C)c2ccc(C3CCCCC3)cc2)ccc1Nc1ccc(OC2CCCCC2)cc1C(=O)O [CP-634]
73%	CNC(=O)c1ccc(Nc2ccc(N(C)c3ccc(C4CCCCC4)cc3)cc2C)c(C(=O)O)c1 [CP-632]
